Laboratory results published in patent publication US20100272814A1, “METHOD AND MEANS FOR PRODUCING BRONCHORELAXATION” (priority 2007, published 2010).

Columns and labels:
[1] = system: airway obstruction in a patient with COPD; test: Administration of iodine on activated charcoal to a patient with COPD (spirometric evaluation and symptoms); format: in vivo, human; conditions: oral intake for a few days, subjective observation
[2] = cited from earlier work; for absorption of the oral intake / oral dose: from food or intestine

Row | SMILES | bronchorelaxing effect / relief of airway obstruction [1] | half time in whole body ([2]; in vivo) | absorption of the oral intake / oral dose [2]
1 | II [elemental iodine] | no distinct bronchorelaxing effect was observed | – | –
2 | [CH3][Hg][Cl] [Methylmercury] | – | around 70 days | about 95%
3 | [Cl][Hg][Cl] [mercuric chloride] | – | – | about 7%
